Assay results as given in the METLIN SMRT retention time set (Domingo-Almenara et al. 2019).

Experiment: gradient 5% acetonitrile 3 min, to 50% in 2 min, to 85% in 15 min, held 3 min, 100 µL/min
Settings: column: Zorbax Extend-C18 2.1 x 50 mm; eluents: water / acetonitrile, 0.1% formic acid
How it was run: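 Mixtures of ~100 pure standards were chromatographed on a Zorbax Extend-C18 column (2.1 × 50 mm, 1.8 μm) at 100 μL/min using water and acetonitrile, each with 0.1% formic acid. Detection used a quadrupole time-of-flight mass spectrometer in positive and negative ionization mode, and data collection spanned 3 months. Retention time was obtained from adduct peaks picked computationally and each checked manually.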

| SMILES | RP-LC retention time [s] |
| --- | --- |
| COc1cc(OC)cc(C(=O)Nc2cccc(C(C)=O)c2)c1 | 753 |
| CC1CCN(C(=O)c2cc3c(s2)CCC(C(=O)N2CCOCC2)C3)CC1 (centres undefined) | 765 |
| CCn1c(C(=O)N2CCN(c3cccc(OC)c3)CC2)cc2sccc21 | 1050 |
| CCOC(=O)c1c(C)oc2nc(C)nc(N3CCN(c4ccc(C(C)=O)cc4)CC3)c12 | 642 |
| Cn1cnc(C(=O)N2CC(F)(F)C[C@H]2c2nc(C3CC3)no2)c1 | 667 |
| CCN(CC)C(=O)c1ccc2c(c1)N(CC(=O)Nc1ccc3c(c1)OCO3)C(=O)C1CCCCN21 (centres undefined) | 808 |
| Cc1ccc(Cl)cc1NC(=O)Cn1cccc1-c1nnc(C2CC2)o1 | 956 |
| Cc1cccc(-c2ncccc2CNS(=O)(=O)c2ccccc2C)c1 | 725 |
| Cc1ccccc1Nc1cc(C)n2c(=O)n(Cc3cccnc3)nc2n1 | 750 |
| COc1ccccc1NC(=O)Cn1nc2c(Oc3ccccc3C)nccn2c1=O | 839 |
| COCCc1noc([C@@H]2CN(Cc3ccc(C(C)C)cc3)C[C@H]2CO)n1 | 663 |
| O=S(=O)(c1cccc(-c2nc(-c3ccccc3)no2)c1)N1CCCc2ccccc21 | 1350 |
| CC1=C(c2ccc(Cl)cc2)S(=O)(=O)N=C1N1CCCN(C(=O)CC(C)(C)C)CC1 | 944 |
| CNc1cc(C(N)=O)c2cccc(Cl)c2n1 | 559 |
| CCCCn1c(=O)c2ccccc2n(Cc2nc(-c3ccc(C(F)(F)F)cc3)no2)c1=O | 1260 |
| CCCN(CC1CCOC1)C(=O)Nc1ccccc1OC (centres undefined) | 821 |
| COCCNC(=O)Cc1csc(SCC(=O)c2cccs2)n1 | 669 |
| COc1ccc(C(=O)N(Cc2cc(OC)c(OC)c(OC)c2)CC2CCCO2)cc1 (centres undefined) | 810 |
| O=C(c1ccccc1Br)N1CCN(c2cc(-c3ccc(Cl)cc3)[nH]n2)CC1 | 913 |
| CC(=O)NCc1ccc(-c2noc(-c3cc(Cl)ccc3F)n2)s1 | 888 |
| c1ccc(-c2nc(C3CCOCC3)no2)c(OC2CCN(C3CCCC3)C2)c1 (centres undefined) | 661 |

| SMILES | RP-LC retention time [s] |
| --- | --- |
| Cc1oc(-c2ccc(C(=O)NCCCN3CCOCC3)cc2)nc1CN1CCc2ccccc21 | 603 |
| COc1ccc(OC)c(CNC(=O)Cn2ccc3ccc(-c4nnc(C)o4)cc32)c1 | 770 |
| CCOC(=O)c1ccc(NC(=O)CSc2ccc3nnc(-c4ccccn4)n3n2)cc1 | 656 |
| CCCC(=O)Nc1ccc(C(=O)Nc2nc(-c3ccccc3)cs2)cc1 | 912 |
| O=C(Cc1ccccc1Br)N1CCN(c2cc(-c3ccc(Cl)cc3)[nH]n2)CC1 | 939 |
| Cc1ccc2nc(-c3ccc(O)cc3)c(Nc3ccc4c(c3)OCCO4)n2c1 | 646 |
| COc1ccc(OC)c2sc(NCc3ccccn3)nc12 | 585 |
| COCC(C)NC(=O)c1cc2c(s1)N(CC(C)C)CCCC2 (centres undefined) | 1080 |
| COc1ccc(CC2C(=O)Nc3ccc(Cl)cc32)cc1 (centres undefined) | 888 |
| Cn1cnc2ccc(-c3noc(-c4ccc(Br)cc4)n3)cc21 | 848 |
| Cc1nc(-c2noc(-c3ccccc3)n2)cn1CC(=O)NCc1ccc(F)cc1F | 838 |
| O=C(CN1C(=O)CC(c2cccs2)=Nc2ccccc21)Nc1ccc(F)cc1F | 946 |
| Cn1cnnc1SCC(=O)N1CCCCCC1 | 581 |
| Clc1ccc(C2(c3ccc(-c4cn[nH]c4)cc3)CCNCC2)cc1 | 680 |
| Fc1cccc(F)c1-c1nc(-c2ccc3nncn3c2)no1 | 765 |
| Nc1nc(-c2ccccc2)c(C(=O)Nc2ccccc2)s1 | 706 |
| CCC1(O)CCOC2(CCN(Cc3cc(OC)cc(OC)c3)CC2)C1 (centres undefined) | 568 |
| COc1ccc(Cl)cc1N1CC(c2nc3ccccc3n2CC(=O)N2CCOCC2)CC1=O (centres undefined) | 662 |
| Cc1cccc(N2CCN(C(=O)C3=CCN(Cc4ccccc4)CC3)CC2)c1 | 681 |
| COc1cc(OC)cc(-c2nc(-c3cn(Cc4cccc(F)c4)nn3)no2)c1 | 1030 |

Results, then the molecule that gave them:

| RP-LC retention time [s] | SMILES |
| --- | --- |
| 900 | O=S(=O)(NC1CCCC1)c1ccc(-c2nnc(C3CCC3)o2)o1 |
| 663 | CN(C)C[C@@H]1CN(S(C)(=O)=O)C[C@H]1NC(=O)C1(c2ccccc2)CCCC1 |
| 758 | COc1ccc2[nH]c(C(=O)N3CCN(C(=O)Cc4cccs4)CC3)cc2c1 |
| 667 | O=C(NCC1CCN(C(=O)c2ccccc2F)CC1)c1ccccn1 |
| 864 | Cc1cccc(Cn2c(=O)n(CCNC(=O)CC(C)(C)C)c3ncccc32)c1 |
| 778 | Cc1ccc(F)cc1NC(=O)CSc1nc(N2CCCCC2)nc2ccccc12 |
| 762 | CCCCNC(=O)C1CC(=O)N(CCc2c[nH]c3ccc(C)cc23)C1 (centres undefined) |
| 1090 | Cc1[nH]c(C(=O)N2CCN(c3cccc(Cl)c3)CC2)c(C)c1S(=O)(=O)N1CCC(C)CC1 |
| 926 | CCc1c(C2CCN(C(=O)Nc3ccc(F)c(Cl)c3)CC2)noc1N |
| 762 | Cc1cccc(CNC(=O)C2CCCN(C(=O)C3Sc4ccccc4NC3=O)C2)c1 (centres undefined) |
| 694 | O=C(CN1C(=O)COc2ccc(C(=O)N3CCCC3)cc21)Nc1ccccc1F |
| 623 | COc1ccc2cc(C(=O)N3CCC(CC(=O)N4CCN(c5ccccn5)CC4)CC3)[nH]c2c1 |
| 931 | COc1ccc(OC)c(NC(=O)C2CCN(S(=O)(=O)c3cc(-c4noc(C)n4)cs3)CC2)c1 |
| 926 | Cc1ccc(NC(=O)Cn2cccc2-c2nnc(C3CCC3)o2)cc1 |
| 615 | CCNC(=O)c1nc2cccnc2n(C)c1=O |
| 651 | COCCNC(=O)C1CCc2sc(C(=O)N3CCCCC3)cc2C1 (centres undefined) |
| 735 | CCCNC(=O)C1CCCN(c2nc3ccsc3c(=O)n2-c2cccc(OC)c2)C1 (centres undefined) |
| 984 | CC(C)CCNC(=O)c1nn(-c2ccc(F)cc2)nc1CO |
| 700 | CCNC(=O)C1CCCN(c2nc3ncn(CC(=O)Nc4ccccc4OCC)c(=O)c3s2)C1 (centres undefined) |
| 593 | O=C(NC1CCCN(c2cc(-c3ccncc3)[nH]n2)C1)c1cccc(F)c1 (centres undefined) |
| 821 | CCCN1C(=O)c2c(C(=O)NCc3cccc(F)c3)ncn2CC1(C)C(=O)NC1CCCC1 (centres undefined) |
| 836 | CC1=C(c2ccc(C)cc2)S(=O)(=O)N=C1N1CCCN(C(=O)c2cccs2)CC1 |
| 797 | COc1ccc(NC(=O)Cn2nc3c(N4CCSCC4)nccn3c2=O)c(OC)c1 |
| 744 | CCOc1cc2c(cc1OCC)C1C(C(=O)NCCCOC)c3ccccc3C(=O)N1CC2 (centres undefined) |

| RP-LC retention time [s] | SMILES |
| --- | --- |
| 856 | O=S(=O)(Nc1cccc(F)c1)c1ccc(-c2nnc(C3CCC3)o2)o1 |
| 955 | CCCCS(=O)(=O)c1cc2c(cc1NC(=O)c1ccc(C)cc1)n(C)c(=O)n2C |
| 769 | CN1c2ccc(F)cc2C(=O)NC12CCN(C(=O)c1ccc(F)cc1)CC2 |
| 630 | CCOC(=O)C1CCN(C(=O)C2CCc3nc(N(CC)CC)ncc3C2)CC1 (centres undefined) |
| 807 | CCC1CN2C=NC(N3CCN(C(=O)Nc4ccc(OC)c(Cl)c4)CC3)=CC2=N1 (centres undefined) |
| 631 | Cn1c(N2CCC(C(=O)NCCCN3CCC(Cc4ccccc4)CC3)CC2)cc(=O)n(C)c1=O |
| 1150 | Cc1ccc(Sc2nccnc2N2CCCC(C(=O)NCc3ccccc3Cl)C2)cc1 (centres undefined) |
| 576 | CC1(C(=O)N2CCN(Cc3ccc4c(c3)OCO4)CC2)CCCCC(=O)N1 (centres undefined) |
| 868 | O=C(NC1CC1)c1ccc(OCC2CCN(C(=O)Cc3ccccc3Cl)CC2)cc1 |
| 607 | CCN1CCN(c2cc(C(=O)O)c3cc(NS(=O)(=O)c4cc(F)ccc4C)ccc3n2)CC1 |
| 638 | CCN1c2cc(C(=O)NC3CCN(Cc4ccccc4)CC3)ccc2C(=O)N2CCCCC21 (centres undefined) |
| 1010 | CC1CCN(S(=O)(=O)c2ccc(-c3nnc(C(=O)NCc4ccc5c(c4)OCO5)o3)cc2)CC1 |
| 554 | O=C(NCC1CCN(Cc2ccsc2)CC1)Nc1ccc2c(c1)OCO2 |
| 624 | Cn1c(=O)sc2cc(S(=O)(=O)N3CCC(C(=O)NCCc4nc5ccccc5[nH]4)CC3)ccc21 |
| 690 | O=C(NCCc1c[nH]c2ccccc12)C1CCCN(c2nnc(N3CCCC3=O)s2)C1 (centres undefined) |
| 856 | O=C(NCc1ccccc1Cl)c1ccc2c(c1)CCN2C(=O)C1CC1 |
| 891 | COc1cccc(CNC(=O)C2CCN(C(=O)c3cc4oc5ccccc5c4n3C)CC2)c1OC |
| 761 | CC1Oc2ccc(S(=O)(=O)N3CCC(C(=O)Nc4ccccc4F)CC3)cc2NC1=O (centres undefined) |
| 546 | O=C(NCc1cccnc1)NC1CC(=O)N(c2ccc(Cl)cc2)C1 (centres undefined) |
| 717 | COc1ccc(-c2cc3nn(CC(=O)N4CCOCC4)c(=O)n3c(C)n2)cc1 |
| 849 | CCCN1C(=O)COc2ccc(-c3noc(CNC(=O)Cc4ccccc4)n3)cc21 |
| 1090 | Cc1ccc(CNC(=O)C2CCCN(c3nccnc3Sc3ccc(C)cc3)C2)cc1 (centres undefined) |
| 618 | COc1ccc(OC)c(CNC(=O)C2(CCO)CCN(c3ncccn3)C2)c1 (centres undefined) |
| 731 | CC(=O)N1CCC(C(=O)NCc2ccc(-c3nc(-c4cccs4)no3)s2)CC1 |
